Measurements as given in PubChem BioAssay (NCI).
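Values below derive from 48-hour exposures of cells grown in 96-well plates, with endpoints linearly interpolated between the two concentrations bracketing the appropriate inhibition level. Definition used: TGI = concentration required for complete inhibition of growth.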

Legend:
Experiment in all cases: NCI anticancer screen, dose series, 48 h
HOP-62 NSCLC = tested on: HOP-62 NSCLC
LOX IMVI melanoma = tested on: LOX IMVI melanoma
OVCAR-4 ovarian = tested on: OVCAR-4 ovarian
SK-MEL-2 melanoma = tested on: SK-MEL-2 melanoma
SF-295 CNS = tested on: SF-295 CNS
KM12 colon = tested on: KM12 colon
M14 melanoma = tested on: M14 melanoma
MDA-MB-231 breast = tested on: MDA-MB-231 breast
COLO 205 colon = tested on: COLO 205 colon
NCI/ADR-RES ovarian = tested on: NCI/ADR-RES ovarian

| SMILES | TGI (HOP-62 NSCLC) [µM] | TGI (LOX IMVI melanoma) [µM] | TGI (OVCAR-4 ovarian) [µM] | TGI (SK-MEL-2 melanoma) [µM] | TGI (SF-295 CNS) [µM] | TGI (KM12 colon) [µM] | TGI (M14 melanoma) [µM] | TGI (MDA-MB-231 breast) [µM] | TGI (COLO 205 colon) [µM] | TGI (NCI/ADR-RES ovarian) [µM] |
| --- | --- | --- | --- | --- | --- | --- | --- | --- | --- | --- |
| COC(=O)c1cc2c(cc1CC(Cc1ccc3c(c1)CCCC3)C(=O)OC)CCCC2 (stereo not given) | > 100 | > 100 | 71.1 | > 100 | > 100 | > 100 | > 100 | > 100 | > 100 | > 100 |
| CN(C)CCCN=c1c2ccccc2n(O)c2ccccc12 | > 100 | > 100 | > 100 | > 100 | > 100 | > 100 | > 100 | > 100 | 26.9 | > 100 |
| Nc1nc(-c2ccccc2)cc(-c2ccc(OCc3ccccc3)cc2O)n1 | > 100 | > 100 | > 100 | > 100 | > 100 | > 100 | > 100 | > 100 | > 100 | > 100 |
| COC1=C(OC)C(=O)C(Cc2c(C)nc3sccn23)=C(C)C1=O | 34.8 | 36.5 | 18.1 | 41.5 | 30 | 33.9 | 36.6 | 32.9 | 26.8 | 31.1 |
| O=c1c2ccccc2nc(Cc2nc(-c3ccc(Cl)cc3)cs2)n1-c1ccc(Cl)cc1 | > 100 | > 100 | > 100 | > 100 | > 100 | > 100 | > 100 | > 100 | > 100 | > 100 |
